From patent US5439920A, “1,2,5,6-tetrahydropyridine derivative, process for preparing it and its applications in therapy” (Laboratoire L. Lafon, priority 1993, dated 1995) come the findings set out here.

Data set [1] deals with T1, α2 receptors of rat cerebral cortex (Rattus norvegicus, UniProt P22909).
T1 construct: The cerebral cortex is immediately removed; from tissue; host or cells: rat cerebral cortex membranes
T1 sequence (P22909 1-465): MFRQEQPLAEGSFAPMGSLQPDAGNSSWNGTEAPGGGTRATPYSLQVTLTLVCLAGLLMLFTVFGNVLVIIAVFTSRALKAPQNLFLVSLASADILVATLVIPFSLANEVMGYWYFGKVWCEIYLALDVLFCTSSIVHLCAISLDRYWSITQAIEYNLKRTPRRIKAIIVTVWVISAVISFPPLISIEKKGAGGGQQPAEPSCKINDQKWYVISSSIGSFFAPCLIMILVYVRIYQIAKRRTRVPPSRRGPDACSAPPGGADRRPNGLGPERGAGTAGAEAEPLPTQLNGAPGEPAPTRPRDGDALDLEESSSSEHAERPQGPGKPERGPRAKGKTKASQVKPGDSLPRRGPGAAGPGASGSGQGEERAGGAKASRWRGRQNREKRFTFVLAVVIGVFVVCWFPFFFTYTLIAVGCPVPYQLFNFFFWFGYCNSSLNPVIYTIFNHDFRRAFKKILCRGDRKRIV
Briefly: Affinity for the α2 receptors of rat cerebral cortex ([^3 H]clonidine displacement). The data set is classed as binding, Rats (male, CD1, Sprague-Dawley). The settings on record: rat cerebral cortex membranes, [^3 H]clonidine as marker. On the procedure: Rats (male, CD1, Sprague-Dawley, 200-250 g) are sacrificed by decapitation. The cerebral cortex is immediately removed. The cerebral cortices of 4 rats are homogenized in 40 ml of buffer. The homogenates are centrifuged at 20,000 rpm for 15 minutes. The pellet is resuspended in 40 ml of buffer and subjected to a second centrifugation (20,000 rpm for 15 minutes). The pellet thereby obtained is suspended in 8 ml of buffer and then stored at -80° C. until used. On the day of the experiment, a membrane suspension is prepared from the frozen suspension. Aliquots of this membrane suspension are mixed with radioactive ligands (used as marker for each type of receptor) and with increasing concentrations of the test compound, and then incubated (final volume: 1 ml). Reaction is stopped by filtration through a 48-hole HARVESTER system (WHATMAN GF/B filter strip). The filter strip is then washed 3 times with 5 ml of buffer and thereafter placed in an automatic cutting system (BRANDEL). The cut filters fall into counting vials and 4 ml of scintillation fluid (Aquasafe 300, ZINSSER) are distributed automatically by the same system (BRANDEL). Each sample is subjected to counting of the radioactivity using a liquid scintillation counter (KONTRON). Three experimental series are carried out with the test compound, each experiment being carried out in duplicate. […]

Data set [2] deals with intergroup aggressive behaviour. Briefly: Action on intergroup aggressive behaviour. It counts as in vivo. The settings on record: mice, half an hour after test compound, fights in 10 minutes. On the procedure: After spending 3 weeks in each of the halves of a cage separated by an opaque partition, groups of 3 mice receive the test compound. Half an hour later, the two groups in the same cage are brought together by withdrawing the partition, and the number of fights occurring in the course of 10 minutes is noted.

Data set [3] concerns α2 receptors. Briefly: Interaction with yohimbine in mice. The data set is classed as in vivo.
Data set [4] relates to NMRI mice. Kind of data set: Pretoxicity in NMRI mice, intraperitoneal. The data set is classed as in vivo. The settings on record: 3 animals per dose, IP, increasing doses 16-512 mg/kg. On the procedure: Pretoxicity studies were performed in NMRI mice (3 animals per dose) with increasing doses of 16, 32, 64, 128, 256 and 512 mg/kg of products administered intraperitoneally. The dose causing the death of the three animals tested is given.

In data set [5] the test system is spontaneous motility. Kind of data set: Action on spontaneous motility in mice. It counts as in vivo. The settings on record: Mus musculus, ip, 0.5 h, intraperitoneal, half an hour before test, motility recorded over 30 minutes, read-out: dose at and above which a significant decrease in locomotion is observed. On the procedure: Half an hour after receiving the test compound intraperitoneally, the mice are placed in an activity-measuring device, where their motility is recorded over 30 minutes.

Structures can show the parent of a compound that is named as a salt. Bounds are passed on as bounds.

As usually defined, the IC50 is the concentration that inhibits the measured activity by half. A lower IC50 goes with greater potency in that assay. With `C1=C(c2ccccc2)CNCC1` [Example 1, 3-phenyl-l,2,5,6-tetrahydropyridine hydrochloride], in data set [1], the half-maximal inhibitory concentration (IC50) amounted to 26 nM. For the same compound, the minimal effective dose is ≥ 0.032 mg/kg in data set [2] (Mus musculus, 0.5 h, read-out: dose at and above which the number of fights is decreased); ≥ 0.032 mg/kg in data set [5]. Further, in data set [2], the “dose at which the number of fights is most particularly decreased” value stood at 0.125 mg/kg. Further, the “effect of yohimbine on hypothermia induced by the compound” value in data set [3] (yohimbine 0.5 mg/kg i.p., compound 0.125 and 0.5 mg/kg i.p.) was “decreases the hypothermia”. The “effect of yohimbine on hypomotility induced by the compound” value in data set [3] (yohimbine 1 mg/kg i.p., compound 0.5 and 2 mg/kg i.p.) is on record as “decreases the hypomotility”. In addition, in data set [4], the “dose causing the death of the three animals tested” value is reported as 128 mg/kg.
With `CC(C)N1CCC=C(c2ccccc2)C1` [CRL 41 244, N-isopropyl-3-phenyl-l,2,5,6-tetrahydropyridine, reference compound], in data set [1], the IC50 stood at 700 nM.
